Results reported in patent publication US20250326794A1, “ANTI-CANCER LEUCINE-RICH PEPTIDES AND USES THEREOF” (KING'S COLLEGE LONDON, priority 2019, published 2025).

How the values were obtained:
[1] = Tryptophan fluorescent binding assay, 3POPC/1POPG vesicles; conditions: 50 μM peptide, PBS pH 7.4, lipid per peptide
Method: (§1) In brief, 50 μM peptides were fixed and incubated with titrated POPC vesicles (black) or 3POPC/1POPG vesicles (grey) at concentrations of 0, 12.5, 25, 50, 100, 250, 500, 1000, 2500, and 5000 μM in phosphate buffered saline (1×, pH 7.4). The lipid concentration that causes 50% peptide binding was determined using a tryptophan fluorescent binding assay and the values are shown as lipid per peptide.
(§2) The lipids 1-palmitoyl-2-oleoyl-sn-glycero-3-phosphocholine (POPC), 1-palmitoyl-2-oleoyl-snglycero-3-phospho-(1′-rac-glycerol) (POPG) were purchased from Avanti Polar Lipids and dissolved in chloroform. Large unilamellar vesicles (LUVs) were produced by extrusion through 100 nm pore filter using an extruder and filters purchased from Avanti Polar Lipids.
(§3) Peptides (50 μM) and POPC/POPG LUVs (600 μM) were prepared in 10 mM phosphate buffer (pH 7.0). The solutions were incubated and measured after 60 minutes. Excitation was fixed at 280 nm (slit 9 nm) and emission was collected from 300 to 450 nm (slit 9 nm). The spectra were recorded using a Synergy H1 Hybrid Multi-Mode Reader (FIG. 3A) and Cytation™ 5 Cell Imaging Multi-Mode Reader (FIG. 2) from BioTek and were averaged over 3 scans.
(§4) Table 3 illustrates the lipid concentration-induced 50% peptide binding onto a liposome. 50 μM peptide was fixed and incubated with titrated lipid (POPC vesicles or 3POPC/1POPG vesicles) at concentrations of 0, 12.5, 25, 50, 100, 250, 500, 1000, 2500, and 5000 μM in phosphate buffered saline (1×, pH 7.4). The lipid concentration that causes 50% peptide binding was determined using tryptophan fluorescent binding assay and the values are shown as lipid per peptide. †N-terminus is free, C-terminus: —W—NH2.

[2] = ANTS/DPX liposome leakage assay, 3POPC/1POPG vesicles; assay type: biochemical; conditions: 0.5 mM vesicles; for Peptide Concentration-induced 50% ANTS/DPX leakage at pH 4.8, 3POPC/1POPG Vesicle: pH 4.8, lipid per peptide; for Peptide Concentration-induced 50% ANTS/DPX leakage at pH 7.4, 3POPC/1POPG Vesicle: pH 7.4, lipid per peptide
Method: (§5) In brief, 0.5 mM POPC vesicles (grey) or POPC:POPG vesicles (ratio 3:1, black) were incubated with peptide concentrations of 0, 0.02, 0.04, 0.08, 0.16, 0.32, 0.64, 1.25, 2.5, 5, 10, and 20 μM in each A) hydrochloric acid-adjusted phosphate buffered saline (1×, pH 4.8) and B) phosphate buffered saline (1×, pH 7.4).
as §2
(§6) 5 mM ANTS (8-aminonaphthalene-1,3,6-trisulfonic acid, disodium salt) and 12.5 mM DPX (p-xylene-bis-pyridinium bromide) were entrapped in 0.1 μm diameter extruded vesicles with lipids. Gel filtration chromatography using a Sephadex G-100 (GE Healthcare Life Sciences Inc) was used to remove external free ANTS/DPX from LUVs with entrapped contents. LUVs were diluted to 0.5 mM and used to measure the leakage activity by addition of aliquots of peptides. Leakage was measured after 3 h incubation. 10% Triton was used as the positive control to measure the maximum leakage of the vesicle. Fluorescence emission spectra were recorded using excitation and emission wavelength of 350 nm and 510 nm for ANTS/DPX using a BioTek Synergy H1 Hybrid Multi-Mode Reader.
(§7) Table 4 illustrates peptide concentration-induced 50% ANTS/DPX liposome leakage. 0.5 mM POPC and 3POPC/1POPG vesicles were fixed and incubated with titrated peptide concentration ([…]) each in phosphate buffered saline (1×, pH 7.4) and hydrochloric acid-adjusted phosphate buffered saline (1×, pH 4.8). The values are shown as lipid per peptide. †N-terminus is free, C-terminus: —W—NH2.

[3] = ANTS/DPX liposome leakage assay, POPC vesicles; assay type: biochemical; conditions: 0.5 mM vesicles; for Peptide Concentration-induced 50% ANTS/DPX leakage at pH 4.8, POPC Vesicle: pH 4.8, lipid per peptide; for Peptide Concentration-induced 50% ANTS/DPX leakage at pH 7.4, POPC Vesicle: pH 7.4, lipid per peptide
Method: as §5, §2, §6, §7

[4] = test system: U2OS (human bone osteosarcoma); conditions: 72 h
Excerpt: (§8) HMLER (human mammary endothelial cancer cells), HMLER-shEcad (human mammary endothelial cancer stem cells), and MCF-10A (healthy human mammary endothelial) cells were maintained in Mammary Epithelial Cell Growth Medium (MEGM) with supplements and growth factors: bovine pituitary extract (BPE), hydrocortisone, human epidermal growth factor (hEGF), insulin, and gentamicin/amphotericin-B. HEK293T (human embryonic kidney cell), and U2OS (Homo sapiens bone osteosarcoma) cells were maintained in Dulbecco's Modified Eagle's Medium (DMEM) with a final concentration of 10% fetal bovine serum. The cells were grown in T75 flask at 310 K in a humidified atmosphere containing 5% CO2.
(§9) The colourimetric MTT (3-(4,5-dimethylthiazol-2-yl)-2,5-diphenyltetrazolium bromide) assay was used to determine the toxicity of the anticancer peptides and conventional anticancer drugs. 5×10^3 cells were seeded in each well of a 96-well microplate. The cells were incubated overnight. Elevated concentrations of the compounds (0, 0.1, 0.2, 0.4, 0.8, 1.6, 3.1, 6.3, 12.5, 25, 50 and 100 μM) were added and incubated for 72 hr with a total volume 200 μL. The stock solutions of the compounds were prepared as 5 mM solutions in DMSO and diluted using media or in pure water. The final concentration of DMSO in each well was either 0.5% or 0% and this amount was present in the untreated control. After 72 hr, 20 μL of a 4 mg/mL solution of MTT in PBS was added to each well, and the plate was incubated for an additional 4 hr. The MEGM/MTT mixture was aspirated and 100 μL of DMSO was added to dissolve the resulting purple formazan crystals. The absorbance of the solutions in each well was read at 550 nm wavelength. Absorbance values were normalized to either DMSO-containing or non DMSO-containing control wells and plotted as concentration of test compound versus % cell viability. IC50 values were interpolated from the resulting dose dependent curves.
(§10) The peptides were screened against several different human cell lines and their cytotoxicity were determined. Cell lines utilised include MCF-10A (human breast epithelial cell), HMLER (human breast cancer bulk cell), HMLER-shEcad (human breast cancer stem cell), HEK293T (human embryonic kidney cell), and U2OS (human bone osteosarcoma).

[5] = test system: HMLER (human breast cancer bulk cell); assay: cells; conditions: 72 h
Excerpt: as §8, §9, §10

[6] = test system: HEK293T (human embryonic kidney cell); assay: cells; conditions: 72 h
Excerpt: as §8, §9, §10

[7] = test system: HMLER-shEcad (human breast cancer stem cell); assay: cells; conditions: 72 h
Excerpt: as §8, §9, §10

[8] = Tryptophan fluorescent binding assay, POPC vesicles; conditions: 50 μM peptide, PBS pH 7.4, lipid per peptide
Method: as §1, §2, §3, §4

| Structure (SMILES) | Lipid Concentration-induced 50% Peptide Binding, 3POPC/1POPG Vesicle [1] | Peptide Concentration-induced 50% ANTS/DPX leakage at pH 4.8, 3POPC/1POPG Vesicle [2] | Peptide Concentration-induced 50% ANTS/DPX leakage at pH 7.4, 3POPC/1POPG Vesicle [2] | Peptide Concentration-induced 50% ANTS/DPX leakage at pH 4.8, POPC Vesicle [3] | Peptide Concentration-induced 50% ANTS/DPX leakage at pH 7.4, POPC Vesicle [3] | IC50 [4] | IC50 [5] | IC50 [6] | IC50 [7] | Lipid Concentration-induced 50% Peptide Binding, POPC Vesicle [8] |
| --- | --- | --- | --- | --- | --- | --- | --- | --- | --- | --- |
| CC(C)C[C@H](NC(=O)CN)C(=O)N[C@@H](CC(C)C)C(=O)N[C@@H](CCC(=O)O)C(=O)N[C@@H](CC(C)C)C(=O)N[C@@H](CC(C)C)C(=O)N[C@@H](CCCCN)C(=O)N[C@@H](CC(C)C)C(=O)N[C@@H](CC(C)C)C(=O)N[C@@H](CC(C)C)C(=O)N[C@@H](CCC(=O)O)C(=O)N[C@@H](C)C(=O)N[C@@H](C)C(=O)NCC(=O)N[C@@H](Cc1c[nH]c2ccccc12)C(N)=O [EKE] | 1.63 L/P | 438 L/P | 657 L/P | 75 L/P | 738 L/P | 8 ± 0.71 µM | 1.8 ± 0.28 µM | 5.15 ± 0.21 µM | 1.3 ± 0.14 µM | 2.75 L/P |
| CC(C)C[C@H](NC(=O)CN)C(=O)N[C@@H](CC(C)C)C(=O)N[C@@H](CCC(=O)O)C(=O)N[C@@H](CC(C)C)C(=O)N[C@@H](CC(C)C)C(=O)N[C@@H](CCCCN)C(=O)N[C@@H](CC(C)C)C(=O)N[C@@H](CC(C)C)C(=O)N[C@@H](CC(C)C)C(=O)N[C@@H](Cc1c[nH]cn1)C(=O)N[C@@H](C)C(=O)N[C@@H](C)C(=O)NCC(=O)N[C@@H](Cc1c[nH]c2ccccc12)C(N)=O [EKH] | 0.19 L/P | 88 L/P | 365 L/P | 55 L/P | 608 L/P | 23.8 ± 0.81 µM | 2.75 ± 0.07 µM | 6.65 ± 1.34 µM | 2.18 ± 0.31 µM | 0.75 L/P |
| CC(C)C[C@H](NC(=O)CN)C(=O)N[C@@H](CC(C)C)C(=O)N[C@@H](CCC(=O)O)C(=O)N[C@@H](CC(C)C)C(=O)N[C@@H](CC(C)C)C(=O)N[C@@H](CCCCN)C(=O)N[C@@H](CC(C)C)C(=O)N[C@@H](CC(C)C)C(=O)N[C@@H](CC(C)C)C(=O)N[C@@H](CCCCN)C(=O)N[C@@H](C)C(=O)N[C@@H](C)C(=O)NCC(=O)N[C@@H](Cc1c[nH]c2ccccc12)C(N)=O [EKK] | 0.63 L/P | 219 L/P | 235 L/P | 60 L/P | 1095 L/P | 12.2 ± 1.84 µM | 1.72 ± 0.21 µM | 3.35 ± 0.49 µM | 1.19 ± 0.4 µM | 1.50 L/P |
| CC(C)C[C@H](NC(=O)CN)C(=O)N[C@@H](CC(C)C)C(=O)N[C@@H](Cc1c[nH]cn1)C(=O)N[C@@H](CC(C)C)C(=O)N[C@@H](CC(C)C)C(=O)N[C@@H](CCC(=O)O)C(=O)N[C@@H](CC(C)C)C(=O)N[C@@H](CC(C)C)C(=O)N[C@@H](CC(C)C)C(=O)N[C@@H](CCC(=O)O)C(=O)N[C@@H](C)C(=O)N[C@@H](C)C(=O)NCC(=O)N[C@@H](Cc1c[nH]c2ccccc12)C(N)=O [HEE] | 0.50 L/P | 122 L/P | 792 L/P | 100 L/P | 876 L/P | 47.5 ± 11 µM | 6.5 ± 0.71 µM | 10.2 ± 0.2 µM | 4.95 ± 0.49 µM | 0.58 L/P |
| CC(C)C[C@H](NC(=O)CN)C(=O)N[C@@H](CC(C)C)C(=O)N[C@@H](Cc1c[nH]cn1)C(=O)N[C@@H](CC(C)C)C(=O)N[C@@H](CC(C)C)C(=O)N[C@@H](CCC(=O)O)C(=O)N[C@@H](CC(C)C)C(=O)N[C@@H](CC(C)C)C(=O)N[C@@H](CC(C)C)C(=O)N[C@@H](Cc1c[nH]cn1)C(=O)N[C@@H](C)C(=O)N[C@@H](C)C(=O)NCC(=O)N[C@@H](Cc1c[nH]c2ccccc12)C(N)=O [HEH] | 3.50 L/P | 24 L/P | 505 L/P | 173 L/P | 995 L/P | 106 ± 14 µM | 28.6 ± 10.8 µM | 8.8 ± 1.7 µM | 11 ± 1.06 µM | 0.88 L/P |
| CC(C)C[C@H](NC(=O)CN)C(=O)N[C@@H](CC(C)C)C(=O)N[C@@H](Cc1c[nH]cn1)C(=O)N[C@@H](CC(C)C)C(=O)N[C@@H](CC(C)C)C(=O)N[C@@H](Cc1c[nH]cn1)C(=O)N[C@@H](CC(C)C)C(=O)N[C@@H](CC(C)C)C(=O)N[C@@H](CC(C)C)C(=O)N[C@@H](CCC(=O)O)C(=O)N[C@@H](C)C(=O)N[C@@H](C)C(=O)NCC(=O)N[C@@H](Cc1c[nH]c2ccccc12)C(N)=O [HHE] | 0.75 L/P | 113 L/P | 411 L/P | 143 L/P | 842 L/P | 53.2 ± 5.3 µM | 16.7 ± 2.26 µM | 18.4 ± 3.75 µM | 10.8 ± 0.78 µM | 1.00 L/P |
